For the assay, the target named is human Autotaxin enzyme (Homo sapiens (Human), UniProt Q13822). As to the kind of experiment: Autotaxin FS-3 assay. It is filed as biochemical. To be noted: Autotaxin FS3 assay; human Autotaxin enzyme 2 nM; inhibition of FS-3 fluorescence; range and n in brackets. The text has this:
Autotaxin (ATX) converts Lysophosphatidyl choline (LPC) to Lysophosphatidic acid (LPA) via its Lysophosphodiesterase (lysoPLD) activity. FS-3 is an LPC analogue that is conjugated with both a fluorophore and a quencher. In its native state the quencher interferes with the fluorophore's fluorescence. Once autotaxin cleaves FS-3, the fluorophore becomes liberated from the quencher, resulting in increased fluorescence. Thus increase in fluorescence is a measure of ATX activity. Any compound that inhibits the activity of Autotaxin will show less fluorescence read in presence of FS-3, which could be measured by fluorimetric analysis. See U.S. Pat. No. 7,989,663.
Autotaxin Inhibitor Screening Kits are available from Echelon Biosciences, Logan, Utah, USA [http://echelon-inc.com/, accessed 6 Oct. 2011]. Using the methods of Gierse et al [“A novel autotaxin inhibitor reduces lysophosphatidic acid levels in plasma and the site of inflammation”, Journal of Pharmacology and Experimental Therapeutics, vol 334(1), 310-317 (2010), see in particular page 312 lines 4-14], the potency of the compounds of the invention as inhibitors of human autotaxin enzyme may be measured (as IC50 values).
The FS-3 assay to identify ATX inhibitors was preformed as follows: 3 μl of standard inhibitor (referred to as PF-8380 in Gierse et al above) and test compounds were added to an assay plate. To each assay well, containing test compounds or standard, 24 μl of human Autotaxin enzyme (2 nM) was added. The assay plate was then centrifuged at 1000 rpm for 1 minute and allowed to incubate at 37° C. for 30 minutes. Following the incubation period each plate was read in a fluorescence plate reader (Spectra Max M5: excitation: 494 nm and emission: 520 nm) and IC50 values were derived from inhibition of FS-3 fluorescence (as described above).

In the case of `COc1ccc(C(CCO)Nc2ccc(C(=O)NCc3cc(F)ccc3F)nn2)cc1` (centres unmarked) [Example 1, N-(2,5-difluorobenzyl)-6-{[3-hydroxy-1-(4-methoxy-phenyl)propyl]amino}pyridazine-3-carboxamide], the IC50 (commonly the point on the concentration scale where inhibition reaches its midpoint) was 14 nM.

On to `COc1ccc(C(CCO)Nc2ccc(C(=O)NCc3cc(F)cc(F)c3)nn2)cc1` (centres unmarked) [Example 2, N-(3,5-difluorobenzyl)-6-{[3-hydroxy-1-(4-methoxy-phenyl)propyl]amino}pyridazine-3-carboxamide], for which half-maximal inhibition (IC50) required 24.9 nM. This IC50 lies about 1.8-fold higher than the previous one.

As to `Cc1noc(NC(=O)c2ccc(NC(CO)Cc3ccc(Cl)cc3)nn2)c1C` (centres unmarked) [Example 3, 6-{[1-(4-chlorobenzyl)-2-hydroxyethyl]amino}-N-(3,4-dimethylisoxazol-5-yl)pyridazine-3-carboxamide], the IC50 worked out at 37.6 nM.

Turning to `CCN(Cc1ccncc1)c1ccc(C(=O)Nc2cc(-c3ccccc3)nn2C)nn1` [Example 4, 6-[ethyl(pyridin-4-ylmethyl)amino]-N-(1-methyl-3-phenyl-1H-pyrazol-5-yl)pyrid azine-3-carboxamide], the IC50 was determined as 65.2 nM.

On to `COc1ccc(C(CCO)Nc2ccc(C(=O)Nc3onc(C)c3C)nn2)cc1` (centres unmarked) [Example 5, N-(3,4-dimethylisoxazol-5-yl)-6-{[3-hydroxy-1-(4-methoxyphenyl)propyl]amino}pyridazine-3-carboxamide], for which 69.5 nM corresponded to half-maximal inhibition (IC50).

Regarding `O=C(NCCN1CCNC1=O)c1ccc(NC2Cc3ccccc3C2)nn1` [Example 6, 6-(2,3-dihydro-1H-inden-2-ylamino)-N-[2-(2-oxoimidazolidin-1-yl)ethyl]pyridazine-3-carboxamide], the IC50 turned out to be 73.8 nM.

In turn, `O=C(NCCCn1ccnc1)c1ccc(NCc2cc(Cl)cc(Cl)c2)nn1` [Example 7, 6-[(3,5-dichlorobenzyl)amino]-N-[3-(1H-imidazol-1-yl)propyl]pyridazine-3-carboxamide] showed a concentration for half-maximal inhibition (IC50) of 89.2 nM.

As for `Cc1noc(NC(=O)c2ccc(NC(C)c3ccc(Cl)cc3)nn2)c1C` (centres unmarked) [Example 8, 6-{[1-(4-chlorophenyl)ethyl]amino}-N-(3,4-dimethyl-isoxazol-5-yl)pyridazine-3-carboxamide], the midpoint of inhibition, the IC50, lay at 100 nM.

`Cc1ccc(F)c(CNc2ccc(C(=O)Nc3onc(C)c3C)nn2)c1F` [Example 9, 6-[(2,6-difluoro-3-methylbenzyl)amino]-N-(3,4-dimethylisoxazol-5-yl)pyridazine-3-carboxamide]: inhibition was half-maximal at 103 nM (IC50).

In turn, `Cc1noc(NC(=O)c2ccc(NCc3cccc4ccccc34)nn2)c1C` [Example 10, N-(3,4-dimethylisoxazol-5-yl)-6-[(1-naphthylmethyl)-amino]pyridazine-3-carboxamide] came in with an IC50 of 114 nM. This IC50 and that of the molecule before are within 1.5-fold of each other.

For `Cc1noc(NC(=O)c2ccc(NCc3cccc(Cl)c3Cl)nn2)c1C` [Example 11, 6-[(2,3-dichlorobenzyl)amino]-N-(3,4-dimethyl-isoxazol-5-yl)pyridazine-3-carboxamide], the IC50 is 248 nM.

`Cc1noc(NC(=O)c2ccc(NC3CCN(Cc4ccccc4)C3)nn2)c1C` (centres unmarked) [Example 12, 6-[(1-benzylpyrrolidin-3-yl)amino]-N-(3,4-dimethyl-isoxazol-5-yl)pyridazine-3-carboxamide] came in with an IC50 of 357 nM. This IC50 and that of the molecule before are within 1.5-fold of each other.

In the case of `Cc1cc(NC(=O)c2ccc(NC(CO)Cc3ccc(Cl)cc3)nn2)n(C)n1` (centres unmarked) [Example 13, 6-{[1-(4-chlorobenzyl)-2-hydroxyethyl]amino}-N-(1,3-dimethyl-1H-pyrazol-5-yl)pyridazine-3-carboxamide], the concentration for half-maximal inhibition (IC50) is 507 nM.

Take `Cc1onc(-c2ccccc2)c1CNc1ccc(C(=O)NCc2cc(F)cc(F)c2)nn1` [Example 14, N-(3,5-difluorobenzyl)-6-{[(5-methyl-3-phenylisoxazol-4-yl)methyl]amino}pyridazine-3-carboxamide]: the midpoint of inhibition, the IC50, lay at 646 nM.

These data come from US9273011B2, “Substituted pyridazines for the treatment of pain” (INHIBITAXIN LIMITED, priority 2011, dated 2016).
